Like-named read-outs stand apart in the source and are kept apart here. Where a SMILES comes first, the peptide text is derived from it. Bridges are numbered along the chain shown (N, C = ends). [ ]: non-standard residue; d: D form. The star is where a group is joined. hPhe(3,5-F2-4-CF3) = N[C@@H](CCc1cc(F)c(C(F)(F)F)c(F)c1)C(=O)O; hPhe(3-Cl-4-CF3) = N[C@@H](CCc1ccc(C(F)(F)F)c(Cl)c1)C(=O)O; NPrPhe(4-CF3) = CCCN[C@@H](Cc1ccc(C(F)(F)F)cc1)C(=O)O; NMeGly(cPent) = CN[C@H](C(=O)O)C1CCCC1; αMeCha = C[C@](N)(CC1CCCCC1)C(=O)O; NMeF = CN[C@@H](Cc1ccccc1)C(=O)O; NMeD = CN[C@@H](CC(=O)O)C(=O)O; NMeL = CN[C@@H](CC(C)C)C(=O)O; Morpholide = C1CN(*)CCO1; NMeA = CN[C@@H](C)C(=O)O; Ac5c = NC1(C(=O)O)CCCC1; Aze = O=C(O)[C@@H]1CCN1; Sar = CNCC(=O)O
Tests used:
[1] = biological target: GDP-bound KRAS wild-type protein (Homo sapiens, UniProt P01116); test: Binding to KRAS by surface plasmon resonance (SPR), Single Cycle Kinetics; conditions: GDP-bound KRAS wild-type protein, 1:1 binding model, read-out: KRAS KD
Chain of GDP-bound KRAS wild-type protein (P01116 whole entry): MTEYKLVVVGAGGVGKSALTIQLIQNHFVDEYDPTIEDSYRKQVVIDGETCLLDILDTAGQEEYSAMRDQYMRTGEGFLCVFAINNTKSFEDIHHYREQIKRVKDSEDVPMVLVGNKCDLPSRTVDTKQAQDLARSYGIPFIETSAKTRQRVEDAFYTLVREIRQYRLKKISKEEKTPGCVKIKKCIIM

[2] = biological target: GDP-bound HRAS wild-type protein (Homo sapiens, UniProt P01112); test: Binding to HRAS by surface plasmon resonance (SPR), Single Cycle Kinetics; conditions: for HRAS/KRAS (ratio of KD value with respect to HRAS to KD value with respect to KRAS) / HRAS/KRAS (ratio of KD value for HRAS to KD value for KRAS): SPR, GDP-bound HRAS wild-type protein vs GDP-bound KRAS wild-type protein
Chain of GDP-bound HRAS wild-type protein (P01112 whole entry): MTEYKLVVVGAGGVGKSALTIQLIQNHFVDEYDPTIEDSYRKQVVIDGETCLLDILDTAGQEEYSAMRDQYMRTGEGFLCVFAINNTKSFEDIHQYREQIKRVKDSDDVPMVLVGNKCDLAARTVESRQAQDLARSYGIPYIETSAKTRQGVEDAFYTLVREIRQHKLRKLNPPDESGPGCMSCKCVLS

[3] = biological target: GDP-bound NRAS wild-type protein (Homo sapiens, UniProt P01111); test: Binding to NRAS by surface plasmon resonance (SPR), Single Cycle Kinetics; conditions: for NRAS/KRAS (ratio of KD value with respect to NRAS to KD value with respect to KRAS) / NRAS/KRAS (ratio of KD value for NRAS to KD value for KRAS): SPR, GDP-bound NRAS wild-type protein vs GDP-bound KRAS wild-type protein
Chain of GDP-bound NRAS wild-type protein (P01111 whole entry): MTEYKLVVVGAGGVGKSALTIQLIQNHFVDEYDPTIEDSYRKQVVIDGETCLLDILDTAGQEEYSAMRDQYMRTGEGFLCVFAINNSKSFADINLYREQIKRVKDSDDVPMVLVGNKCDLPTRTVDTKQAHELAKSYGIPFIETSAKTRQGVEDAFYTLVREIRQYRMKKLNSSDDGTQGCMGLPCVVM

Kd ([1]; SPR Single Cycle Kinetics) | Compound | HRAS/KRAS (ratio of KD value with respect to HRAS to KD value with respect to KRAS) [2] | NRAS/KRAS (ratio of KD value with respect to NRAS to KD value with respect to KRAS) [3] | also measured
0.43 nM | CCCC[C@H]1C(=O)N[C@@H]([C@@H](C)CC)C(=O)N(C)CC(=O)N(C)[C@H]2C/C=C\CCN(C2=O)[C@@H](Cc2ccc(C)cc2)C(=O)N(C)CC(=O)N[C@@H](CCc2cc(F)c(C(F)(F)F)c(F)c2)C(=O)N2C[C@H](OCC)C[C@H]2C(=O)NC2(CC(C)(C)C2)C(=O)N(C)[C@@H](C2CCCC2)C(=O)N(C)[C@H](C(=O)N(C)CC)CC(=O)N1C [PP2808] | – | – | HRAS/KRAS (ratio of KD value with respect to GDP-bound HRAS wild-type protein to KD value with respect to KRAS) ([2]; SPR KD ratio HRAS/KRAS, class symbols): B (a compound having 3 or more and less than 10 is denoted as B); NRAS/KRAS (ratio of KD value with respect to GDP-bound NRAS wild-type protein to KD value with respect to KRAS) ([3]; SPR KD ratio NRAS/KRAS, class symbols): B (a compound having 3 or more and less than 10 is denoted as B)
0.026 nM | CCO[C@@H]1C[C@H]2C(=O)NC3(CCC3)C(=O)N(C)[C@@H](C3CCCC3)C(=O)N(C)[C@H](C(=O)N3CCOCC3)CC(=O)N(C)[C@@H](CC)C(=O)N[C@@H]([C@@H](C)CC)C(=O)N(C)CC(=O)N(C)[C@H]3CCCCN(C3=O)[C@@H](Cc3ccc(C(F)(F)F)cc3)C(=O)N(C)CC(=O)N[C@@H](CCc3cc(F)c(C(F)(F)F)c(F)c3)C(=O)N2C1 [PP0708] | B (a compound having 3 or more and less than 10 is denoted as B) | B (a compound having 3 or more and less than 10 is denoted as B) | –
– | CCCOC[C@H]1C(=O)N[C@@H]([C@@H](C)CC)C(=O)N(C)CC(=O)N(C)[C@H]2C/C=C\CCN(C2=O)[C@@H](Cc2ccc(C(F)(F)F)cc2)C(=O)N(C)CC(=O)N[C@@H](CCc2cc(F)c(C(F)(F)F)c(F)c2)C(=O)N2C[C@H](OCC)C[C@H]2C(=O)NC2(CCC2)C(=O)N(C)[C@@H](C2CCCC2)C(=O)N(C)[C@H](C(=O)N(C)CC)CC(=O)N1C [PP1569] | – | – | Kd ([1]; SPR, Single Cycle Kinetics): 0.11 nM; HRAS/KRAS (ratio of KD value for HRAS to KD value for KRAS) ([2]; KD ratio class): B (a compound having 3 or more and less than 10 is denoted as B); NRAS/KRAS (ratio of KD value for NRAS to KD value for KRAS) ([3]; KD ratio class): A (a compound having 10 or more and less than 20 is denoted as A)
0.3 nM | CC[C@H](C)[C@@H]1NC(=O)[C@H](CC(C)C)N(C)C(=O)C[C@@H](C(=O)N2CCOCC2)N(C)C(=O)[C@H](C2CCCC2)N(C)C(=O)C2(CCCC2)NC(=O)[C@@H]2CCCN2C(=O)[C@H](CCc2ccc(C(F)(F)F)c(Cl)c2)NC(=O)CN(C)C(=O)[C@H](Cc2ccccc2)N(C)C(=O)[C@@H]2CCN2C(=O)[C@H](C)N(C)C1=O [PP0011] ([NMeL]I[NMeA][Aze][NMeF][Sar][hPhe(3-Cl-4-CF3)]P[Ac5c][NMeGly(cPent)][NMeD]-Morpholide; lactam N-11) | – | – | HRAS/KRAS (ratio of KD value for HRAS to KD value for KRAS) [2]: C (A compound having a KD ratio of 0.1 or more and less than 3 is denoted as C); NRAS/KRAS (ratio of KD value for NRAS to KD value for KRAS) [3]: C (A compound having a KD ratio of 0.1 or more and less than 3 is denoted as C)
7.5 nM | CCCN1C(=O)[C@@H]2CCN2C(=O)CN(C)C(=O)[C@H]([C@@H](C)CC)NC(=O)[C@H](CC(C)C)N(C)C(=O)C[C@@H](C(=O)N2CCOCC2)N(C)C(=O)[C@H](C2CCCC2)N(C)C(=O)[C@](C)(CC2CCCCC2)NC(=O)[C@@H]2CCCN2C(=O)[C@H](CCc2cc(F)c(C(F)(F)F)c(F)c2)NC(=O)CN(C)C(=O)[C@@H]1Cc1ccc(C(F)(F)F)cc1 [PP0796] ([NMeL]I[Sar][Aze][NPrPhe(4-CF3)][Sar][hPhe(3,5-F2-4-CF3)]P[αMeCha][NMeGly(cPent)][NMeD]-Morpholide; lactam N-11) | B (a compound having 3 or more and less than 10 is denoted as B) | C (A compound having a KD ratio of 0.1 or more and less than 3 is denoted as C) | –

Reference: patent US20240158446A1, “CYCLIC COMPOUND HAVING SELECTIVE INHIBITORY ACTION ON KRAS OVER HRAS AND NRAS” (CHUGAI SEIYAKU KABUSHIKI KAISHA, priority 2021, published 2024)
